Experimental findings from patent US8871789B2, “Method of preventing or treating viral infection” (The United States of America, as represented by the …, priority 2010, dated 2014) are described below.

Where two headings read alike, the source gives them in different places.

In assay [1] the test system is HSV-1. It counts as cell-based, Balb/c mice. Conditions: 2 mM DMOG, 2 mM TCP or ACV, 48 hours; FIG. 11. The protocol: FIG. 18 is a dot plot showing latently infected ganglia that were explanted in the presence of DMSO, ACV (100 mM), or ML324 (50 mM) for 48 hrs. Viral yields were determined from one half of each ganglia at 48 hrs (DMSO, ACV, ML324) and from the other half of each ganglia after drug reversal for an additional 72 hrs (ACV-R, ML324-R) [Wilcoxon matched pairs signed rank test, ACV vs ACV-R n=8, ML324 vs ML324-R n=10]. Data are means±SEM.
FIG. 19 is a dot plot showing viral yields from HSV-1 latently infected trigeminal ganglia that were explanted in the presence of DMSO, or 2 mM DMOG or 50 mM ML324 for 48 hours (DMSO versus DMOG: P=0.0015, Wilcoxon matched-pairs signed rank test; n=12; DMSO versus ML324: P<0.0001; n=20). Data are means±SEM.
Viral yields decrease from HSV-1 latently infected ganglia explanted in the presence of LSD1 or JMJD2 inhibitors (FIG. 11). Balb/c mice were infected with 5×10^6 PFU HSV-1 (strain F) per eye after corneal scarification. Latently infected mice were sacrificed 45 days post clearance of the primary infection and trigeminal ganglia were rapidly explanted into culture in the presence of 2 mM DMOG, 2 mM TCP, or control (DMSO or ACV, acyclovir) for 48 hours. Post explant incubation, the ganglia were homogenized and briefly sonicated. The reactivated viral yield of each ganglia was determined by titering the clarified supernatant on Vero cells. Statistical comparisons were made using Wilcoxon signed rank test (paired ganglia) with a statistical significance of <0.05. Each data point was the result of a single ganglia divided and treated in the presence and absence of DMSO and DMOG or DMSO and TCP. Therefore, a Wilcoxon signed rank test was used to assess differences between each treated and untreated sample. The significant difference between DMSO control and DMOG was p=0.0018. This test used an exact p-value for small sample sizes with an a level of 0.05. n=20. Analyses were made using Prism (V5.0a) and are expressed as the mean+/−s.e.m.

In assay [2] the test system is HSV-1. The format is cell-based, mouse. Conditions: 100 mM ACV or 50 mM ML324, 48 hours.
Protocol: FIG. 20 is a dot plot showing latently infected trigeminal ganglia that were explanted in the presence of DMSO, 100 mM ACV, or 50 mM ML324 for 48 hours. The total number of UL29+ neurons per ganglia is graphed, representing the number of neurons undergoing viral reactivation. Data are means±SEM.
The subject of assay [3] is HSV-1. As to the kind of experiment: Plaque assay of Vero cells infected with HSV-1. Details: # Plaques: dose or concentration left out as unconfirmed. The note with it: 12 hours infection, then ACV or ML324 for 48 hours. The format is cell-based. The protocol: ML324 was ˜75-fold more efficient than DMOG. Additionally, ML324 (i) reduced viral yields in a dose-dependent manner (˜5 logs at 50 mM, FIG. 14); (ii) blocked viral IE gene transcription and reduced viral yields when cells were infected at high multiplicity of infection (MOI; FIGS. 15 and 16); and (iii) suppressed IE gene transcription, even when added at times after infection (>50% reduction at 2 hours after infection; FIG. 17). As further evidence for the efficacy of ML324, cells were infected with HSV to allow for a productive cycle of infection, followed by treatment with DMSO, ACV, or ML324.

The target of assay [4] is T1, JMJD2E (Homo sapiens, UniProt B2RXH2).
T1 sequence (B2RXH2 1-506): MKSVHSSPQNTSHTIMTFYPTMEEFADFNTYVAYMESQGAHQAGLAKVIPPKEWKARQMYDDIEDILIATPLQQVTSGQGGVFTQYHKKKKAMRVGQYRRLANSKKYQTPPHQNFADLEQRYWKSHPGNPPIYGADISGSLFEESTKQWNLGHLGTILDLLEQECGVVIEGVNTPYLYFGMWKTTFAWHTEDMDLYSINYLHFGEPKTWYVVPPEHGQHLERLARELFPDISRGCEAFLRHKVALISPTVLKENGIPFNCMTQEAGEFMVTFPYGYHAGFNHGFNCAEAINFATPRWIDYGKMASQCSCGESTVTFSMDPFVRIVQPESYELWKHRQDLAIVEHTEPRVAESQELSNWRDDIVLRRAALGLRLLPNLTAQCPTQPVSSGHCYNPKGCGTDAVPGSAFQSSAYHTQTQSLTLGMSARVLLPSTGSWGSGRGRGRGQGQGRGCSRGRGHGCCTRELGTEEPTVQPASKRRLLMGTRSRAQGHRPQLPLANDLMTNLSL
As to the kind of experiment: AlphaLISA assay, JMJD2E histone demethylase inhibition. The format is biochemical.

Setting [5] is: Table 2, JMJD2E, AlphaLISA, in triplicate, read-out: IC50.
Setting [6] is: Table 3, JMJD2E, AlphaLISA, in triplicate, read-out: IC50.

Take `N[C@@H]1C[C@H]1c1ccccc1` (racemic) [TCP, tranylcypromine]: the “viral yield from explanted latently infected ganglia” value in assay [1] is listed as “decreases”.

In the case of `Nc1nc2c(ncn2COCCO)c(=O)[nH]1` [ACV, acyclovir, reference compound], the “viral yield from explanted latently infected ganglia” value in assay [1] is on record as “No viral yields”. Further, in assay [2], the “isolated UL29+ neurons relative to DMSO” value was “reduced number”. For the same molecule, the “# Plaques” value is 1 in assay [3] (MOI .001) and 8 in assay [3] (MOI .01).

In the case of `O=C(O)c1ccnc2c(O)cccc12` [Compound 2], in assay [4] (setting [5]), the half-maximal inhibitory concentration (IC50) – broadly, the concentration needed to halve the response being measured – amounted to 3070 nM.

With `CN(C)CCCNC(=O)c1ccc(-c2cnc3c(O)cccc3c2)cc1` [Compound 3], the IC50 in assay [4] (setting [5]) was found to be 12000 nM.

On to `O=C(c1ccc(-c2cc(O)c3ncccc3c2)cc1)N1CCNCC1` [Compound 5], for which, in assay [4] (setting [5]), the IC50 is 1620 nM.

In the case of `CN1CCN(C(=O)c2cccc(-c3cc(O)c4ncccc4c3)c2)CC1` [Compound 6], the IC50 in assay [4] (setting [5]) worked out at 4270 nM.

`O=C(NCCCN1CCNCC1)c1cccc(-c2cc(O)c3ncccc3c2)c1` [Compound 7]: in assay [4] (setting [5]), the IC50 came out at 1240 nM.

As for `CN(C)CC1CCN(C2CCN(C(=O)c3cccc(-c4cc(O)c5ncccc5c4)c3)CC2)CC1` [Compound 8], in assay [4] (setting [5]), the IC50 came out at 990 nM.

`CN(C)CCCN1CCCN(C(=O)c2cccc(-c3cc(O)c4ncccc4c3)c2)C1` [Compound 9]: the IC50 in assay [4] (setting [5]) worked out at 1520 nM.

On to `CN1CCN(c2cnc3c(O)ccc(C(=O)O)c3c2)CC1` [Compound 10], for which the IC50 in assay [4] is 2250 nM.

In turn, `O=C(O)c1ccc(O)c2ncc(N3CCOCC3)cc12` [Compound 11] had an IC50 in assay [4] of 1740 nM.

As to `O=C(O)c1ccc(O)c2ncc(C3CCNCC3)cc12` [Compound 12], it took 1330 nM to reach half-maximal inhibition in assay [4] (IC50).

In assay [4], `NC1CCN(c2cnc3c(O)ccc(C(=O)O)c3c2)CC1` [Compound 13] had an IC50 of 1570 nM.

Consider `O=C(O)c1ccc(O)c2ncc(N3CCCC3)cc12` [Compound 14], for which, in assay [4], inhibition was half-maximal at 2240 nM (IC50).

The molecule `O=C(O)c1ccc(O)c2ncc(NC3CCNC3)cc12` (stereo not shown) [Compound 15] gave an IC50 in assay [4] of 1760 nM.

In assay [4], `N[C@@H]1CCN(c2cnc3c(O)ccc(C(=O)O)c3c2)C1` [Compound 16] gave an IC50 of 1170 nM.

Regarding `O=C(O)c1ccc(O)c2ncc(N3CC4CNCC4C3)cc12` (stereo not shown) [Compound 17], the midpoint of inhibition in assay [4], the IC50, lay at 1470 nM.

As for `O=C(O)c1ccc(O)c2ncc(N3CCN(Cc4ccccc4)CC3)cc12` [Compound 18], in assay [4] (setting [6]), the IC50 was 4980 nM.

Regarding `O=C(O)c1ccc(O)c2ncc(-c3ccc(N4CCOCC4)cc3)cc12` [Compound 19], in assay [4] (setting [6]), the IC50 was 4180 nM.

With `O=C(O)c1ccc(O)c2ncc(-c3cccc(N4CCOCC4)c3)cc12` [Compound 20], the IC50 in assay [4] (setting [6]) turned out to be 5110 nM.

With `O=C(O)c1ccc(O)c2ncc(NCC3CCCN(CCc4ccccc4)C3)cc12` (stereo not shown) [Compound 21], in assay [4] (setting [6]), the IC50 was 2100 nM.

Consider `O=C(O)c1ccc(O)c2ncc(N3CCCCC3CCc3ccccn3)cc12` (stereo not shown) [Compound 22], for which the IC50 in assay [4] (setting [6]) stood at 4660 nM.

`O=C(O)c1ccc(O)c2ncc(-c3ccc(C(=O)N4CCNCC4)cc3)cc12` [Compound 23]: the IC50 in assay [4] (setting [6]) came to 3610 nM.

`CN1CCN(C(=O)c2ccc(-c3cnc4c(O)ccc(C(=O)O)c4c3)cc2)CC1` [Compound 24]: the IC50 in assay [4] (setting [6]) was determined as 4630 nM.

`CN(C)CCCNC(=O)c1ccc(-c2cnc3c(O)ccc(C(=O)O)c3c2)cc1` [Compound 25]: in assay [4] (setting [6]), the IC50 is 1410 nM.

With `O=C(O)c1ccc(O)c2ncc(N3CCCN(C4CCCC4)CC3)cc12` [Compound 26], in assay [4] (setting [6]), the IC50 was 2080 nM.

Consider `O=C(O)c1ccc(O)c2ncc(N3CCCN(CCCc4ccncc4)CC3)cc12` [Compound 27], for which the IC50 in assay [4] (setting [6]) turned out to be 1710 nM.

The molecule `NC(=O)c1cccc(-c2cnc3c(O)ccc(C(=O)O)c3c2)c1` [Compound 28] showed an IC50 in assay [4] of 4900 nM.
